Legend:
Test in all cases: relative viability (nuclei count vs DMSO), 5 days (fraction); higher = more cells survive
[1] = compound: CC(C)(C)c1nc(-c2cccc(NS(=O)(=O)c3c(F)cccc3F)c2F)c(-c2ccnc(N)n2)s1 [Dabrafenib] + CS(=O)(=O)N1CCN(Cc2cc3nc(-c4cccc5[nH]ncc45)nc(N4CCOCC4)c3s2)CC1 [Pictilisib] (partner 1 µM)
Procedure, shortened: (§1)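 Lung cancer cell lines were seeded in 1536-well plates and dosed by pin tool the next day, with either a single drug or a fixed anchor-drug dose combined with five library-drug doses (not always all listed) spaced in √10 steps. Five days later, one step fixed the cells and stained their nuclei (final 0.05% Triton X-100, 1% formaldehyde, 1 ug/ml Hoechst), and nuclei were counted on 4× images. Relative viability is the nuclei count in treated wells divided by the count in vehicle wells, and each value is the median of duplicate plates.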

[2] = compound: NC(=O)c1ccc(N(C(N)=O)c2c(F)cccc2F)nc1-c1ccc(F)cc1F [VX-702] + CS(=O)(=O)CCNCc1ccc(-c2ccc3ncnc(Nc4ccc(OCc5cccc(F)c5)c(Cl)c4)c3c2)o1 [Lapatinib] (partner 2 µM)
Procedure, shortened: as §1

[3] = compound: NC(=O)c1ccc(N(C(N)=O)c2c(F)cccc2F)nc1-c1ccc(F)cc1F [VX-702] + Cc1nc(NC(=O)N2CCC[C@H]2C(N)=O)sc1-c1ccnc(C(C)(C)C(F)(F)F)c1 [Alpelisib] (partner 2 µM)
Procedure, shortened: as §1

[4] = compound: CC(C)(C)c1nc(-c2cccc(NS(=O)(=O)c3c(F)cccc3F)c2F)c(-c2ccnc(N)n2)s1 [Dabrafenib] + CS(=O)(=O)CCNCc1ccc(-c2ccc3ncnc(Nc4ccc(OCc5cccc(F)c5)c(Cl)c4)c3c2)o1 [Lapatinib] (partner 2 µM)
Procedure, shortened: as §1

| Cell Line | relative viability ([1]; first compound 0.009487 µM) | relative viability ([1]; first compound 0.09487 µM) | relative viability ([1]; first compound 0.3 µM) | relative viability ([2]; first compound 0.02 µM) | relative viability ([2]; first compound 0.2 µM) | relative viability ([2]; first compound 0.6325 µM) | relative viability ([2]; first compound 2 µM) | relative viability ([3]; first compound 0.02 µM) | relative viability ([3]; first compound 0.2 µM) | relative viability ([3]; first compound 0.6325 µM) | relative viability ([3]; first compound 2 µM) | relative viability ([4]; first compound 0.009487 µM) | relative viability ([4]; first compound 0.03 µM) | relative viability ([4]; first compound 0.09487 µM) | relative viability ([4]; first compound 0.3 µM) | relative viability ([1]; first compound 0.03 µM) | relative viability ([1]; first compound 0.003 µM) | relative viability ([4]; first compound 0.003 µM) |
| --- | --- | --- | --- | --- | --- | --- | --- | --- | --- | --- | --- | --- | --- | --- | --- | --- | --- | --- |
| NCI-H647 | 0.347 | 0.531 | 0.388 | 1.15 | 0.935 | 1.24 | 1.25 | 1.29 | 1 | 1.08 | 1.14 | 1.24 | 0.812 | 1.01 | 0.893 | – | – | – |
| NCI-H650 | 0.977 | 0.688 | 0.661 | 0.876 | – | 0.43 | 1.16 | 1.11 | – | 1.15 | 1.34 | 1.1 | 0.623 | 0.514 | 0.435 | 0.878 | – | – |
| NCI-H661 | 0.376 | 0.34 | 0.48 | 0.498 | 0.445 | 0.505 | 0.624 | 0.536 | 0.364 | 0.338 | 0.997 | 0.486 | 0.364 | 0.458 | 0.455 | – | 0.283 | 0.471 |
| NCI-H727 | 0.476 | 0.444 | 0.401 | 0.88 | 0.671 | 0.818 | 0.911 | 0.504 | 0.552 | 0.621 | 0.634 | 0.811 | 0.658 | 0.755 | 0.817 | 0.36 | – | – |
| NCI-H838 | 0.563 | 0.447 | 0.385 | 1.06 | 1.01 | 1.13 | 1.35 | 0.965 | 0.893 | 0.95 | 1.23 | 1.17 | 0.871 | 0.855 | 1.1 | 0.421 | 0.394 | 0.816 |
| NCI-H1299 | 0.756 | 0.464 | 0.441 | 1.02 | 0.965 | 1.03 | 1.06 | 1.14 | 1.1 | 1.21 | 1.15 | 0.952 | 0.957 | 0.932 | 0.824 | 0.797 | 0.74 | 1.01 |
| NCI-H1355 | 0.493 | – | 0.362 | 1.09 | 0.984 | 0.998 | 1.28 | 0.778 | 0.807 | 0.799 | 0.876 | 1.11 | 1.03 | – | 1.19 | 0.328 | – | – |
| NCI-H1395 | 0.652 | 0.542 | 0.567 | 0.898 | 1.16 | 1.09 | 1.17 | 1.2 | 1.11 | 0.967 | 1.38 | 1.02 | 0.821 | 0.85 | 0.973 | 0.673 | – | – |
| NCI-H1437 | 0.478 | 0.46 | 0.702 | 0.779 | 0.753 | 0.972 | 0.959 | 0.943 | 0.858 | 0.911 | 1.14 | 0.756 | 0.911 | 0.785 | 0.816 | 0.481 | 0.385 | 0.687 |
| NCI-H1563 | 0.628 | 0.633 | 0.583 | 0.939 | 0.991 | 1.02 | 0.691 | 0.905 | 0.997 | 0.835 | 0.876 | 1.06 | 0.633 | 0.928 | 0.938 | 0.6 | 0.591 | 0.831 |
| NCI-H1651 | 0.58 | 0.554 | 0.596 | 1.04 | 0.929 | 0.847 | 0.963 | 0.928 | 0.948 | 0.882 | 1.16 | 0.818 | 0.84 | 0.938 | 0.834 | 0.559 | 0.534 | 0.849 |
| NCI-H1666 | – | 0.387 | 0.448 | 0.828 | 0.583 | 0.711 | 0.438 | 1 | 0.862 | 0.88 | 0.909 | – | 0.623 | 0.629 | 0.745 | 0.474 | 0.473 | 0.547 |
| NCI-H1703 | 0.255 | 0.249 | 0.226 | 1.2 | 0.931 | 0.647 | 1.21 | 0.304 | 0.376 | 0.215 | 0.334 | 1.6 | 0.938 | 0.896 | 1.09 | 0.225 | 0.257 | 1.2 |
| NCI-H1734 | 0.522 | 0.424 | 0.399 | 0.541 | 0.961 | 1.05 | 0.917 | 0.626 | 0.596 | 0.588 | 0.559 | 1.02 | 0.629 | 0.747 | 0.785 | 0.38 | – | – |
| NCI-H1755 | 0.414 | 0.418 | 0.342 | 1.08 | 1.02 | 1.09 | 1.09 | 0.907 | 0.891 | 0.925 | 1.01 | 1.07 | 0.928 | 1 | 0.986 | 0.237 | 0.444 | 0.957 |
| NCI-H1792 | 0.307 | 0.311 | 0.242 | 0.965 | 0.811 | 0.97 | 1.08 | 0.668 | 0.66 | 0.637 | 0.479 | 0.881 | 0.813 | 0.792 | 0.912 | 0.237 | – | – |
| NCI-H1793 | 0.313 | 0.392 | 0.323 | 0.752 | 0.59 | 0.817 | 0.987 | 0.822 | 0.583 | 0.545 | 0.959 | 1 | 0.598 | 0.741 | 0.612 | 0.329 | 0.366 | 0.522 |
| NCI-H1915 | 1.06 | 0.758 | 0.578 | 1.05 | 1 | 1 | 1.07 | 1.04 | 1.05 | 1.1 | 1.15 | 0.985 | 0.781 | 0.654 | 0.673 | 0.862 | 0.902 | 1.04 |
